In brackets after ≈: the same amount, converted by molar mass.

One may read the Kp as the ratio of the level in a tissue or fluid to that in plasma or blood. As a reminder, the IC50 is the concentration at which inhibition is half-maximal. Higher therefore signals weaker potency in that assay. The term solubility denotes how much of the substance goes into solution per volume. Read a high solubility as a readily soluble substance.

A short description of data set [1]: Brain to plasma (B:P) ratio in rat. The note with it: male, Sprague Dawley, po, p.o. 3.0 mg/kg. Type of data set: in vivo, Sprague Dawley Rats. On the procedure: Male Sprague Dawley Rats 300-350 g (Charles River, UK) were group housed, n=3, under a 12 h light/dark cycle with food and water available ad libitum. At 17:00 on the day prior to dosing all food was removed. On the day of dosing animals were weighed, tail marked and dosed via oral gavage with compound at 3 mg/kg in a volume of 5 mL/kg. Animals were culled at 30 min, 1 h and 4 h post dose via intra-peritoneal administration of pentobarbital. Post mortem blood was withdrawn via cardiac puncture, and briefly stored in K2 EDTA blood tubes on ice before being spun at 14,000 g for 4 min at 4° C. Plasma was withdrawn into a 96 well plate, placed on dry ice and stored at −80° C. Brains were quickly dissected and placed on dry ice before storage at −80° C. Bioanalysis of plasma and brain samples is performed as detailed below. Methods were prepared with guidance from industry standard documents.^i,ii […] Calibration lines are prepared in control male Sprague-Dawley Rat plasma at known concentrations in the range of 1-10000 ng/mL by spiking 2.5 μL of calibration spiking solution into 25 μL control plasma. Experimental samples are thawed to RT and 25 μL aliquots are extracted alongside the calibration lines using protein precipitation (agitation for at least 5 min at RT with 400 μL of MeCN containing 25 ng/mL tolbutamide as an internal standard). Protein precipitates are separated from the extracted test compound by centrifugation at 4000 rpm for 5 min, 4° C. […] Samples are analysed by UPLC-MS/MS on either an API6500 QTrap or Waters 30 TQS mass spectrometer using previously optimised analytical MRM (multiple reaction monitoring) methods, specific to the test compound. The concentration of test compound in isolated samples is determined following analysis of the samples against the two replicates of the calibration line, injected before and after the sample set with an appropriate regression and weighting used. Only samples within 20% of the expected test concentration are included in the calibration line and any samples that fall outside of the limits of the calibration line will be deemed to be less than or above the limit of quantification (LLoQ/ALoQ). […] Calibration lines are prepared in control male Sprague-Dawley Rat brain homogenate at known concentrations in the range of 3-30000 ng/g by spiking 2.5 μL of calibration spiking solution into 25 μL control homogenate. To prepare control and experimental brain homogenates, brains are thawed, weighed and a volume of diluent added (water) in the ratio of 2 mL per gram of brain. Homogenisation of brains is performed by bead-beater homogenisation using Precellys Evolution and CK14 7 mL small ceramic bead homogenisation tubes. Aliquots of 25 μL experimental sample are extracted alongside the calibration lines using protein precipitation (agitation for at least 5 min at RT with 400 μL of MeCN containing 25 ng/mL tolbutamide as an internal standard). Protein precipitates are separated from the extracted test compound by centrifugation at 4000 rpm for 5 min, 4° C. […] Samples are analysed by UPLC-MS/MS on either an API6500 QTrap or Waters TQS mass spectrometer using previously optimised analytical MRM (multiple reaction monitoring) methods, specific to the test compound. The concentration of test compound in isolated samples is determined following analysis of the samples against the two replicates of the calibration line, injected before and after the sample set with an appropriate regression and weighting used. Only samples within 20% of the expected test concentration are included in the calibration line and any samples that fall outside of the limits of the calibration line will be deemed to be less than or above the limit of quantification (LLoQ/ALoQ). Total brain to plasma (B:P) ratios were calculated by dividing the concentration in the brain by the concentration in plasma for each timepoint. The mean brain to plasma ratio is calculated by averaging these brain to plasma ratios across certain timepoints. […]

For a further data set, the target named is T1, hERG channel (Homo sapiens, UniProt Q12809).
T1 construct: expressed in transfected cells
T1 sequence (Q12809 whole entry): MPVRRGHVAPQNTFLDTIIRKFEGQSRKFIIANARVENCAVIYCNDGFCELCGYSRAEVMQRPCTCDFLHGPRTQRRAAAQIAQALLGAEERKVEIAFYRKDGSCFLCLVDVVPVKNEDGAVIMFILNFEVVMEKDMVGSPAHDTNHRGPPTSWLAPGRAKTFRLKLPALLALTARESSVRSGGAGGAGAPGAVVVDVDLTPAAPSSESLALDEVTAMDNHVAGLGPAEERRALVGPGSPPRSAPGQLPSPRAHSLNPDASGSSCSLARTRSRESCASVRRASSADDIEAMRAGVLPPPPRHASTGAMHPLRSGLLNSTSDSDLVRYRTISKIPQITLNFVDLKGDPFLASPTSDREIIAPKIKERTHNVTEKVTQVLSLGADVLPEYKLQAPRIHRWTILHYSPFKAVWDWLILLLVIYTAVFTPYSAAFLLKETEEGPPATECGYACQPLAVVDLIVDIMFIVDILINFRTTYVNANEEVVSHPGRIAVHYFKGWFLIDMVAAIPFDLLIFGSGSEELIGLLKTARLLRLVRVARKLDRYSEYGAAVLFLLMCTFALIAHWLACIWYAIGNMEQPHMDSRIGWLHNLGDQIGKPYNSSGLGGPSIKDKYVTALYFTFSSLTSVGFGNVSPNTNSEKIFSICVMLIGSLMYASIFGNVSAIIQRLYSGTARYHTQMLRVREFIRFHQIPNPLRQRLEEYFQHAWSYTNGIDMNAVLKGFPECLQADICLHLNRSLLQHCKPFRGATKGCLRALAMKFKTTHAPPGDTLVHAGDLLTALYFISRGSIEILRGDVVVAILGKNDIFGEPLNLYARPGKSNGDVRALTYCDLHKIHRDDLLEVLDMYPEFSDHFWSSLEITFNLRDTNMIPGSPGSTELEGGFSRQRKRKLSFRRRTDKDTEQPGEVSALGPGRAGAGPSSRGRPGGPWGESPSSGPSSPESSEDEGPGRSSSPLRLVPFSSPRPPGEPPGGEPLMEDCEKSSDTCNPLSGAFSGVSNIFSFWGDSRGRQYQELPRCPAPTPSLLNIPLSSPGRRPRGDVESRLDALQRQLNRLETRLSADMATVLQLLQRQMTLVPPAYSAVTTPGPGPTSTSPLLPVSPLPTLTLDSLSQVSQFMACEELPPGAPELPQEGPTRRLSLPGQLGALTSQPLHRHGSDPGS
Put plainly: hERG assay (QPatch automated patch clamp, CHO cells). Type of data set: cell-based. Particulars: CHO cells expressing hERG, whole-cell patch clamp, 0.003 μM to 10 μM. From the text:
The human ether-a-go-go related gene (hERG) potassium channel (Kv11.1) contributes to human cardiac action potential repolarisation. Inhibition of hERG channels can prolong the human cardiac action potential, resulting in QTc prolongation and potentially lethal arrhythmias (e.g. Torsade de Pointes).
Test samples were screened against the hERG channel on a QPatch 48 gigaseal automated patch clamp platform, using a Chinese Hamster Ovary (CHO) cell line stably expressing the human ether-á-go-go related gene, which encodes the hERG channel. All recordings were made in the conventional whole-cell configuration and performed at RT ([…]) using standard single hole chips (Rchip 1.5-4M0). Series resistance (4-15Mc) was compensated by >80%. Currents were elicited from a holding potential of −90 mV using the industry standard “^+40/−40” voltage protocol, which was applied at a stimulus frequency of 0.1 Hz. On achieving the whole-cell configuration, vehicle (0.1% DMSO v/v in external recording solution) was applied to each cell in two bolus additions with a 2 min recording period between each addition. Following the vehicle period, eight increasing concentrations of test sample were applied from 0.003 μM to 10 μM as a single bolus addition per test concentration, and the effects on hERG tail current amplitude measured during the 2 min recording period. Each eight-point concentration-response curve was constructed using cumulative single sample additions of each concentration to the same cell. The positive control used in this study was verapamil hydrochloride (Tocris, Cat #0654, Batch #5A/61673) and prepared to a stock concentration of 10 mM in 100% DMSO and kept as frozen aliquots.
Data analysis: All cells passing the QC parameters (i.e. >200 pA outward current, membrane resistance and rundown) are selected as ‘passed QC’ using the QPatch software, which then calculates the mean peak current for the last three sweeps at the end of each concentration application period from the cursor positions defined. Percent inhibition is calculated for each test concentration application period as the reduction in mean cursor value (peak current or charge) relative to the cursor value measured at the end of the control (i.e. vehicle) period. The percent inhibition values from each cell are used to construct concentration-response curves employing a four parametric logistic fit with 0 and 100% inhibition levels fixed at very low and very high concentrations, respectively, and a free Hill slope factor. The IC50 (50% inhibitory concentration) and Hill coefficient are then determined, but only data from cells with Hill slopes within 0.5>nH<2.0 are included. The IC50 data reported below represents the mean (and S.D.) of at least three separate cells (N≥3). […] Compounds of the invention show reduced hERG inhibitory activity compared to the reference examples.
(hERG is a cardiac potassium channel; its block is linked to QT prolongation.)

Data set [2] has as its system Salmonella typhimurium, strains TA98 and TA100. Briefly: Ames assay (Bacterial Reverse Mutation Test). The data set is classed as cell-based. The note with it: TA98 and TA100, presence and absence of S-9 mix, up to 5000 μg/plate. How it is done: Examples 50, 52 and 54 were tested, in vitro, for their ability to induce mutations in 2 histidine dependent auxotrophic mutants of Salmonella typhimurium, strains TA98 and TA100. The mutation screen was conducted using the plate incorporation method and was performed in both the presence and absence of S-9 mix (a liver post-mitochondrial fraction derived from the livers of Aroclor 1254 treated rats). The bacteria were exposed to the test items dissolved in DMSO, which was also the negative Control. The test items were tested up to the regulatory maximum dose level. The dose levels used were 5, 15, 50, 150, 500, 1500 or 5000 μg/plate, unless the highest treatment level of the test items was limited by solubility, or toxicity against the background bacterial lawn. Dose levels were expressed in terms of the free base.
There were no increases of 2-fold or greater in revertant numbers compared with negative Control values in either strain at any dose level in the presence or absence of S-9 mix, so Examples 50, 52 and 54 were not mutagenic in the Bacterial Reverse Mutation (i.e. Ames) Test under the conditions of this screen.
Background: In the Ames test, an excess of revertant colonies over the control signals mutagenicity.

For data set [3], the system named is 87 targets across GPCRs, ion channels, and enzymes. Put plainly: Eurofins SafetyScreen panel. The note with it: top concentration of 10 μM. The source says: Example 50 was screened against the Eurofins SafetyScreen™ panel of 87 targets across GPCRs, ion channels, and enzymes.
Data set [4] can be described thus: Brain to plasma (B:P) ratio in rat. Type of data set: in vivo, Sprague Dawley Rats. Particulars: male, Sprague Dawley, iv, i.v. 1.5 mg/kg, 3.3% NMP in 30% HPBC in water, timepoints averaged 0.5-1 h.
Data set [5] can be described thus: Kinetic aqueous solubility assay. The note with it: aqueous buffer, kinetic from dmso stock, 0.05M potassium phosphate buffer pH 7.4, 250 μM spike, RT. Type of data set: physicochemical. How it is done:
Using a 10 mM stock solution of test compound in 100% DMSO, test compounds were spiked into 0.05M potassium phosphate buffer (pH 7.4) at a final concentration of 250 μM. Samples in buffer (n=2 aqueous samples, in 96-well plates) were allowed to equilibrate at RT on an orbital shaker for 30 min (300 rpm) to induce precipitation of test compounds. The appearance of each sample was determined by visual examination and noted (clear, cloudy, precipitate observed etc.). […] The concentration of compound in phosphate buffer filtrate was determined by comparing the UV absorbance peak area of each replicate against that of the calibration standards. […] Compounds of the invention have much improved solubility compared to the reference examples.

The target in data set [6] is T2, Ba/F3 cells expressing BCR-ABL (Homo sapiens, UniProt P00519).
T2 construct: BCR (fusion partner); host or cells: Ba/F3 (IL-3 dependent murine pro-B cells); the other entry of the earlier key: BCR (P11274, Breakpoint cluster region protein)
T2 sequence (P00519 28-1130 limits assumed): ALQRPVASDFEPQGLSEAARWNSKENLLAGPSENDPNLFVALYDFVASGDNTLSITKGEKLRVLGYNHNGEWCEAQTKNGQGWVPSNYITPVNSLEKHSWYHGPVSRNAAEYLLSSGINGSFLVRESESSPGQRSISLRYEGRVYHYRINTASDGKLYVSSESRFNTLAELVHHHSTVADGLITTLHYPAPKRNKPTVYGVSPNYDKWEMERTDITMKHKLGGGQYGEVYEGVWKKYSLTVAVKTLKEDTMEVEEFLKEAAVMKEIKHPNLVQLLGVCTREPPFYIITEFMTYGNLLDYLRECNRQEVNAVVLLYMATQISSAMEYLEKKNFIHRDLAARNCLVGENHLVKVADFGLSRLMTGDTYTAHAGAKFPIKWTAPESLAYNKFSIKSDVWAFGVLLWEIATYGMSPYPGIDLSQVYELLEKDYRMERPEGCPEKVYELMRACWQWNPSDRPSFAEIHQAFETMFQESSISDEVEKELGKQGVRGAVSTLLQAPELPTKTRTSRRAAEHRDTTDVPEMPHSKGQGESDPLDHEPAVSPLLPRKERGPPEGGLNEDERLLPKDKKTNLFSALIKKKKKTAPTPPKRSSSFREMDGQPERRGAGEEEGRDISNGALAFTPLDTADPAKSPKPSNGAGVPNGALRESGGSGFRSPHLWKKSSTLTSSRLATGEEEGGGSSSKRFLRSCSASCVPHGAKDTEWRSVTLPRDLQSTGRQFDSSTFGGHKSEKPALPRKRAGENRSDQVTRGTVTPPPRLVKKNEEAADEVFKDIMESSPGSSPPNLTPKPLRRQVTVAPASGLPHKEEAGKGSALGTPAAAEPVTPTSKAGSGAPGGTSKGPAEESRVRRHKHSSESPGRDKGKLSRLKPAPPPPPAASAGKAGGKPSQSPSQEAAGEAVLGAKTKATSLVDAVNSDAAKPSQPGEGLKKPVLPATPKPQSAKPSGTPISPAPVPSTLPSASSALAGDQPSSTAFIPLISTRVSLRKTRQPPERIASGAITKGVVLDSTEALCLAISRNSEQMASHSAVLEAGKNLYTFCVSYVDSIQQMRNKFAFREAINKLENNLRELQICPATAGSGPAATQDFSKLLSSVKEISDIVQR
Put plainly: Ba/F3 CellTiter-Glo Assay. The data set is classed as cell-based. Particulars: 48 h. How it is done:
The CellTiter-Glo luminescent cell viability assay is a homogeneous method of determining the number of viable cells in culture based on quantification of the ATP present. Briefly, IL-3 dependent Ba/F3 cells are modified to express BCR-ABL. Activity of the transformed kinase overrides IL3 dependency for cellular proliferation and survival. […] Test compounds were dispensed into 384 well plates using the Tecan D300e at a top final assay concentration of 10 μM with dosing normalised to 0.1% DMSO in 50 μL volume. […] Following a 60 min incubation at RT luminescence was read on the Pherastar FS reader.
(Cellular ATP, detected with luciferase, serves as a proxy for viable cell number.)

Setting [7] is: 30% HPBC in water, timepoints averaged 0.5-4 h.

For `O=C(Nc1ccc(OC(F)(F)Cl)cc1)c1ccc(=O)n(-c2cccc(F)c2)c1` [Example 47, N-[4-(Chlorodifluoromethoxy)phenyl]-1-(3-fluorophenyl)-6-oxo-1,6-dihydropyridine-3-carboxamide], in data set [1] (setting [7]), the concentration ratio (Kp) is 1.54. Besides, at hERG channel, the half-inhibitory concentration (IC50) was above 10 µM.

In the case of `O=C(Nc1ccc(OC(F)(F)F)cc1)c1ccc(=O)n(-c2cncnc2)c1` [Example 50, 6-Oxo-1-(pyrimidin-5-yl)-N-[4-(trifluoromethoxy)phenyl]-1.6-dihydropyridine-3-carboxamide], the “mutagenicity in the Bacterial Reverse Mutation (Ames) Test” value in data set [2] is “not mutagenic”. The “number of 87 targets inhibited >50%” value in data set [3] is 2. This molecule also yielded a maximum inhibition in data set [3] (87 targets) of 65%. This molecule registered a 50% inhibitory concentration (IC50) against hERG channel above 10 µM.

Regarding `O=C(Nc1ccc(OC(F)(F)Cl)cc1)c1ccc(=O)n(-c2cncnc2)c1` [Example 51, N-[4-(Chlorodifluoromethoxy)phenyl]-6-oxo-1-(pyrimidin-5-yl)-1,6-dihydropyridine-3-carboxamide], in data set [4], the Kp came out at 0.67. Besides, the solubility at 30 min in data set [5] was 190 µM (≈ 74.6 µg/mL). This molecule also returned a 50% inhibitory concentration (IC50) on hERG channel above 10 µM.

Consider `Cn1cc(-n2cc(C(=O)Nc3ccc(OC(F)(F)Cl)cc3)ccc2=O)cn1` [Example 52, N-[4-[Chloro(difluoro)methoxy]phenyl]-1-(1-methylpyrazol-4-yl)-6-oxo-pyridine-3-carboxamide], for which the “mutagenicity in the Bacterial Reverse Mutation (Ames) Test” value in data set [2] is recorded as “not mutagenic”. The molecule also returned a solubility at 30 min in data set [5] of 160 µM (≈ 63.2 µg/mL). On hERG channel, this molecule showed a half-maximal inhibitory concentration (IC50) above 10 µM.

For `O=C(Nc1ccc(OC(F)(F)Cl)cc1)c1ccc(=O)n(-c2cccnc2)c1` [Example 53, N-[4-[Chloro(difluoro)methoxy]phenyl]-6-oxo-1-(3-pyridyl)pyridine-3-carboxamide], the solubility at 30 min in data set [5] was determined as 170 µM (≈ 66.6 µg/mL). The partition ratio (Kp) in data set [1] (5% NMP in 30% HPBC in water, timepoints averaged 0.5-1 h) was found to be 0.82. Moreover, the concentration for half-maximal inhibition (IC50) at hERG channel was above 10 µM.

In data set [5], `COc1cncc(-n2cc(C(=O)Nc3ccc(OC(F)(F)Cl)cc3)ccc2=O)c1` [Example 61, N-[4-[Chloro(difluoro)methoxy]phenyl]-1-(5-methoxy-3-pyridyl)-6-oxo-pyridine-3-carboxamide] came in with a solubility at 30 min of 160 µM (≈ 67.5 µg/mL). For the same molecule, the concentration ratio (Kp) in data set [1] (setting [7]) worked out at 0.45. On hERG channel, this molecule had a concentration for half-maximal inhibition (IC50) above 10 µM.

For `O=C(Nc1ccc(OC(F)(F)Cl)cc1)c1ccc(=O)n(-c2cncc(Cl)c2)c1` [Example 63, N-[4-[Chloro(difluoro)methoxy]phenyl]-1-(5-chloro-3-pyridyl)-6-oxo-pyridine-3-carboxamide], in data set [5], the solubility at 30 min was found to be 120 µM (≈ 51.1 µg/mL). Further, in data set [1] (setting [7]), the Kp was determined as 0.64. This molecule also displayed an IC50 at hERG channel above 10 µM.

In data set [6], `O=C(Nc1ccc(OC(F)(F)Cl)cc1)c1ccc(=O)n(-c2ccc[n+]([O-])c2)c1` [Example 78, 5-{[4-(Chlorodifluoromethoxy)phenyl]carbamoyl}-2-oxo-2H-[1.3′-bipyridin]-1′-ium-1′-olate] had an IC50 of 0.151 to 1 µM. The same molecule displayed a solubility at 30 min in data set [5] of 150 µM (≈ 61.2 µg/mL).

The molecule `Cn1cc(-n2cc(C(=O)Nc3ccc(OC(F)(F)Cl)cc3)cc(C#N)c2=O)cn1` [Example 79, N-[4-(Chlorodifluoromethoxy)phenyl]-5-cyano-1-(1-methyl-1H-pyrazol-4-yl)-6-oxo-1.6-dihydropyridine-3-carboxamide] showed a half-maximal inhibitory concentration (IC50) in data set [6] of 0.151 to 1 µM.

The record behind these values is patent US20230002346A1, “NEW COMPOUNDS AND METHODS” (BenevolentAl Bio Limited, priority 2019, published 2023).
